Experiments:
Type in all cases: cell-based
BT474 = test: Cell-Titer Glo Cell Growth Inhibition Assay, BT474; settings: Homo sapiens; CellTiter-Glo, 72 h, BT 474; read-out: CTG BT 474 IC50
Description: (§1) A549-L (human lung), BT474 (human breast), Colo 205 (human colon), H1299 (human lung), Hela (human cervix), HCT-116 (human colon), HN5 (human head and neck), HT29 (human colon), LNCap (human prostate), MCF7 (human breast), MDA-MB468 (human breast), MX-1 (human breast), RPMI 8226 (human peripheral blood), SKOV3 (human ovary) and P388 (murine leukemia) cell lines were cultured in RPMI1640 containing 10% fetal bovine serum at 37° C. in a 5% CO2 incubator. Cell lines were split into T75 flasks (Falcon #353136) two to three days prior to assay set up at density which yields approximately 70-80% confluency at time of harvest for assay. Cells were harvested using 0.25% trypsin with EDTA (Glibco/Invitrogen #25200-056), Cell counts were performed on cell suspensions using Trypan Blue exclusion staining, cells were then plated in 105 uL of culture media per well at the following densities in 96 well Costar #3916 black flat bottom plates: All human cell lines were plated at 500 cells/well. P388 were plated at 250 cells/well. All plates were placed at 5% CO2 37° C. overnight and then test compounds were added the following day. One plate of each cell type is treated with CellTiter-Glo (Promega #G7573) for a day 0 proliferation measurement and read as described below. […]

Hela = test: Cell-Titer Glo Cell Growth Inhibition Assay, Hela; settings: Homo sapiens, CellTiter-Glo, 72 h, read-out: CTG Hela IC50
Description: as §1

HN5 = test: Cell-Titer Glo Cell Growth Inhibition Assay, HN5; settings: Homo sapiens, CellTiter-Glo, 72 h, read-out: CTG HN5 IC50
Description: as §1

LNCap = test: Cell-Titer Glo Cell Growth Inhibition Assay, LNCap; settings: Homo sapiens, CellTiter-Glo, 72 h, read-out: CTG LNCap IC50
Description: as §1

MCF7 = test: Cell-Titer Glo Cell Growth Inhibition Assay, MCF7; settings: Homo sapiens, CellTiter-Glo, 72 h, read-out: CTG MCF7 IC50
Description: as §1

MDA-MB468 = test: Cell-Titer Glo Cell Growth Inhibition Assay, MDA-MB468; settings: Homo sapiens, MDA-MB-468, CellTiter-Glo, 72 h, read-out: CTG MDA-MB468 IC50
Description: as §1

H1299 = test: Cell-Titer Glo Cell Growth Inhibition Assay, H1299; settings: Homo sapiens, NCI-H1299, CellTiter-Glo, 72 h, read-out: CTG H1299 IC50
Description: as §1

RPMI 8226 = test: Cell-Titer Glo Cell Growth Inhibition Assay, RPMI 8226; settings: Homo sapiens, CellTiter-Glo, 72 h, read-out: CTG RPMI 8226 IC50
Description: as §1

Measured: IC50

C[C@@H](Oc1cc(-n2cnc3cc(-c4cnn(C)c4)ccc32)sc1C(N)=O)c1ccccc1Cl [Example 9, 3-{[(1R)-1-(2-Chlorophenyl)ethyl]oxy}-5-[5-(1-methyl-1H-pyrazol-4-yl)-1H-benzimidazol-1-yl]-2-thiophenecarboxamide]
< 100 nM: all assays above
